From US8940498B2, “Biological assays for the characterization of cells using single-cell tracking and uses thereof” (priority 2012, dated 2015) come the findings set out here.

Where two headings read alike, the source gives them in different places.

Series [1] concerns HeLa cells. The settings on record: for Average CQI: CQI Formula 1.
Series [2] relates to HeLa cells. Description: cells. The settings on record: Homo sapiens, read-out: Average CQI, % of control.
For series [3], the system named is HeLa cells. The experiment in a line: Classical clonogenic end-point assay. It counts as cell-based. The following applies: 0.25 μM for 30 min.
The mark [4] stands for this setting: exposure to non-cytotoxic doses.
[5] abbreviates: HeLa cells, 0.25 μM, normalized by 200 progenitors.

For the compound arsenic acid, the “frequency of cells entering MD versus control cell populations” value with HeLa cells [1] (setting [4]) was “more frequently found than control cell populations”.
Same read-out and setting: then `[Cd]` [cadmium], with “more frequently found than control cell populations”.
Regarding `CC[C@@]1(O)C(=O)OCc2c1cc1n(c2=O)Cc2cc3ccccc3nc2-1` [CPT, camptothecin], the “Average CQI” value in the series with HeLa cells [1] (HeLa cells, 0.1 μM) worked out at 9.3. For the same compound, in the series on HeLa cells [1] (HeLa cells, 0.25 μM), the “CQI (Formula 2)” value came to 0.026, the “total MD versus control” value was “reduced” and the “Average CQI” value is given as 6.2. In the series on HeLa cells [1] (setting [5]), the “DD (number of dipolar division events)” value amounted to 1059 ± 95; the “MD (multipolar division, TD+QD+HD)” value is on record as 27.0 ± 4.5; the “QD (number of quadripolar division events)” value was 4.0 ± 1.2; the “TD (number of tripolar division events)” value came to 23.0 ± 3.2. Moreover, in the series with HeLa cells [1] (setting [5]), the “Total DV (total cell division, DD+TD+QD+HD)” value is 1086 ± 9.7. The “Average CQI” value in the series with HeLa cells [1] (HeLa cells, 1 μM) worked out at 1.8. Further, in the series with HeLa cells [1] (HeLa cells, at non-cytotoxic dose (0.1 μM CPT, 1 μM MNNG)), the “CD induction and cell growth suppression” value is listed as “neither CD induction nor cell growth suppression”. In the series on HeLa cells [1] (HeLa cells, by average CQI), this compound had a non-cytotoxic dose of 0.1 µM and a sub-cytotoxic dose of 0.25 µM. Further, in the series on HeLa cells [2], the activity at 0.1 µM was 102%, the activity at 0.25 µM came to 60% and the activity at 1 µM is 22%. The same compound came in with a cell survival with HeLa cells [3] of 95%.
`C=O` [formaldehyde]: the “frequency of cells entering MD versus control cell populations” value in the series with HeLa cells [1] is on record as “more frequently found than control cell populations”. This compound had a non-cytotoxic dose in the series on HeLa cells [1] (human) of 0.002 to 0.18 µM.
On to `CC(=O)Nc1ccc(O)cc1` [acetaminophen], for which the “frequency of cells entering MD versus control cell populations” value in the series on HeLa cells [1] is listed as “not observed”.
With `CC(C)Cc1ccc(C(C)C(=O)O)cc1` (centres unmarked) [ibuprofen], the “frequency of cells entering MD versus control cell populations” value with HeLa cells [1] (setting [4]) is recorded as “not observed”.
